The source of these data is patent publication US20200270237A1 (priority 2017, published 2020).

Like-named read-outs stand apart in the source and are kept apart here.

For this assay, the target named is Human α2δ-1 Subunit of Cav2.2 Calcium Channel (Homo sapiens, UniProt P54289). As to the kind of experiment: biochemical. In kind it is binding.
Setting [1] is: read-out: Ki (nM) alpha2delta Hum.

Chain of Human α2δ-1 Subunit of Cav2.2 Calcium Channel (P54289 25-1103): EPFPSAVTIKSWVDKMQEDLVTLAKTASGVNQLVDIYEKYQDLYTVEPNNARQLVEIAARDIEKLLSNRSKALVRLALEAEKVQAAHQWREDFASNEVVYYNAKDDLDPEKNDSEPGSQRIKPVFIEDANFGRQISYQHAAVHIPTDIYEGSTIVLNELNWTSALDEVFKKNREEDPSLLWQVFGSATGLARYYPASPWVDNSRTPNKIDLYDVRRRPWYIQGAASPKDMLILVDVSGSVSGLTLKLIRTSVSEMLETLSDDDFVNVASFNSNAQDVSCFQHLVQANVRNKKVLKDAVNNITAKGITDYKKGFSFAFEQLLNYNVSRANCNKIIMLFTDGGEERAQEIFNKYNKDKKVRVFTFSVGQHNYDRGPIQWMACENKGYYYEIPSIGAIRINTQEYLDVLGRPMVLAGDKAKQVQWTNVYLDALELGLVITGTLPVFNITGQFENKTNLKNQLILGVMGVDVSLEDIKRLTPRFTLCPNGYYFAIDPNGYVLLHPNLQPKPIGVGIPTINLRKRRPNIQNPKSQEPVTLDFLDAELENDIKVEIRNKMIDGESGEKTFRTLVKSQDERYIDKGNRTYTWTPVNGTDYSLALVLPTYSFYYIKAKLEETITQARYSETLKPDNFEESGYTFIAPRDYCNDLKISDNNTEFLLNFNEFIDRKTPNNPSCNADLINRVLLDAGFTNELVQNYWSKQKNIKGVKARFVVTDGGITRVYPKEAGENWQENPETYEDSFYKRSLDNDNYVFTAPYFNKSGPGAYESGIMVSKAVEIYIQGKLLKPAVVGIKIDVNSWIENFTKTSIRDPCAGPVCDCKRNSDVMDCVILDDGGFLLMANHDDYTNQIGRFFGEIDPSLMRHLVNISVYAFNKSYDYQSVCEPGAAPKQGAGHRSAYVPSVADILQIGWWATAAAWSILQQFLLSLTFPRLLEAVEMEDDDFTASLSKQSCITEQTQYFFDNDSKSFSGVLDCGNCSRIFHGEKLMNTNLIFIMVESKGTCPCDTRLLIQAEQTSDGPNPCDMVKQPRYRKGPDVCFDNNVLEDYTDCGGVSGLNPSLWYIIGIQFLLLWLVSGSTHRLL

Regarding `CNCCC(Oc1cccc(CN2C[C@@H](C)N[C@@H](C)C2)c1)c1cccs1` (stereo partly shown) [Example 1, 3-(3-((3,5-Dimethylpiperazin-1-yl)methyl)phenoxy)-N-methyl-3-(thiophen-2-yl)propan-1-amine], under setting [1], the Ki lay within 500 to 3000 nM.
As to `CNCCC(Oc1cccc(CN2CCC(c3ccccc3)(N(C)C)CC2)c1)c1cccs1` (stereo not shown) [Example 2, N,N-dimethyl-1-(3-(3-(methylamino)-1-(thiophen-2-yl)propoxy)benzyl)-4-phenylpiperidin-4-amine], the Ki fell in the range of 100 to 500 nM.
For the molecule `CNCCC(Oc1cccc(CN2CCC(c3cccc(O)c3)CC2)c1)c1cccs1` (stereo not shown) [Example 3, 3-(1-(3-(3-(Methylamino)-1-(thiophen-2-yl)propoxy)benzyl)piperidin-4-yl)phenol], the Ki fell in the range of 100 to 500 nM.
The same measure, in the same setting: the figure for `CNCCC(Oc1cccc(CN2CCC(c3cccc(O)c3)(N(C)C)CC2)c1)c1cccs1` (stereo not shown) [Example 5, 3-(4-(Dimethylamino)-1-(3-(3-(methylamino)-1-(thiophen-2-yl)propoxy)benzyl)piperidin-4-yl)phenol] is 100 to 500 nM.
`CNCCC(Oc1cccc(CN2CCNCC2)c1)c1cccs1` (stereo not shown) [Example 6, N-methyl-3-(3-(piperazin-1-ylmethyl)phenoxy)-3-(thiophen-2-yl)propan-1-amine]: the Ki under setting [1] was in the range of 500 to 3000 nM.
Take `CNCCC(Oc1cccc(C(=O)N2CCC(c3ccccc3)(N(C)C)CC2)c1)c1cccs1` (stereo not shown) [Example 7, (4-(Dimethylamino)-4-phenylpiperidin-1-yl)(3-(3-(methylamino)-1-(thiophen-2-yl)propoxy)phenyl)methanone]: the Ki is, setting by setting: (Table 1, human α2δ-1 enriched membranes, 15 nM [3H]-Gabapentin, read-out: Ki (nM) alpha2delta Hum) 500 to 3000 nM; (Table 2 (dual compounds), human α2δ-1 enriched membranes, 15 nM [3H]-Gabapentin, read-out: Ki (nM) alpha2delta Hum) 500 to 3000 nM.
In the case of `CNCCC(Oc1cccc(C(=O)N2CCCCC2)c1)c1ccccc1` (stereo not shown) [Example 8, (3-(3-(Methylamino)-1-phenylpropoxy)phenyl)(piperidin-1-yl)methanone], the Ki under setting [1] is over 3000 nM.
The same measure, in the same setting: the figure for `CNCCC(Oc1cccc(C(=O)N2CCN(C)CC2)c1)c1ccccc1` (stereo not shown) [Example 9, (3-(3-(Methylamino)-1-phenylpropoxy)phenyl)(4-methylpiperazin-1-yl)methanone] is over 3000 nM; for `CNCCC(Oc1cccc(C(=O)N2CCOCC2)c1)c1ccccc1` (stereo not shown) [Example 10, (3-(3-(Methylamino)-1-phenylpropoxy)phenyl)(morpholino)methanone] it is over 3000 nM.
Same read-out and setting: the figure for `CNCCC(Oc1cccc(C(=O)N2CCN(C)CC2)c1)c1cccs1` (stereo not shown) [Example 11, (3-(3-(Methylamino)-1-(thiophen-2-yl)propoxy)phenyl)(4-methylpiperazin-1-yl)methanone] is over 3000 nM; for `CC[C@]1(N2CCN(CCc3cccc(O[C@H](CCNC)c4ccccc4)c3)CC2)CCOC(C)(C)C1` [Example 12a, (R)-3-(3-(2-(4 ((S)-4-ethyl-2,2-dimethyltetrahydro-2H-pyran-4-yl)piperazin-1-yl)ethyl)phenoxy)-N-methyl-3-phenylpropan-1-amine] it is 500 to 3000 nM; for `CC[C@@]1(N2CCN(CCc3cccc(O[C@H](CCNC)c4ccccc4)c3)CC2)CCOC(C)(C)C1` [Example 12b, (R)-3-(3-(2-(4-((R)-4-ethyl-2,2-dimethyltetrahydro-2H-pyran-4-yl)piperazin-1-yl)ethyl)phenoxy)-N-methyl-3-phenylpropan-1-amine] it is 500 to 3000 nM.
Regarding `CNCCC(Oc1cccc(-n2nc(C)cc2C)c1)c1ccccc1` (stereo not shown) [Example 13], the Ki under setting [1] was over 3000 nM.
With `CNCC[C@H](Oc1cccc(CN2CCC(c3cccc(O)c3)(N(C)C)CC2)c1)c1cccs1` [Example 14, (S)-3-(4-(dimethylamino)-1-(3-(3-(methylamino)-1-(thiophen-2-yl)propoxy)benzyl)piperidin-4-yl)phenol], the Ki lay in the range of 100 to 500 nM.
Consider `CNCC[C@H](Oc1cccc(CN2CCC(c3ccccc3)(N(C)C)CC2)c1)c1cccs1` [Example 15, (S)-N,N-dimethyl-1-(3-(3-(methylamino)-1-(thiophen-2-yl)propoxy)benzyl)-4-phenylpiperidin-4-amine], for which the Ki was 500 to 3000 nM.
